Patent US20120149663A1, “BORONIC ACID COMPOSITIONS AND METHODS RELATED TO CANCER” (GEORGETOWN UNIVERSITY, priority 2009, published 2012)
Like-named read-outs stand apart in the source and are kept apart here.

How the values were obtained:
[1] = tested on: CL 10.3 cells (MCF-7 MDR, over-expresses the MDR gene); assay: Cell growth assay (WST-1 assay), multidrug resistant CL 10.3; type: cell-based, human; conditions: for Activity in multidrug resistant cells (in words): CL 10.3 compared with MCF-7; for MDR GI50/non-MDR GI50: CL 10.3 versus MCF-7, 72 h; for GI50: CL 10.3 Breast (MDR), 72 h, read-out: Cell Survival (WST-1 assay, GI50, 72 h) CL 10.3; for P-glycoprotein substrate (in words): inferred from activity in MDR cell line CL 10.3
Protocol: IC50 value (the concentration yielding 50% growth inhibition) was extrapolated from the graph of the log of compound concentration versus the fraction of surviving cells. The 1050 for each cell line was calculated using graph pad prism. Data are expressed as mean (SEM) of triplicate sample. Results are mean value of triplicate samples.
ER-Positive (MCF-7) human breast carcinoma cell line was used in this study. The human breast cell lines MCF-7 (HTB-22) were provided by the tissue culture core facility at Lombardi Comprehensive Cancer Center, Georgetown University Medical Center. MCF-7^MDR (CL 10.3) cells were a gift from Dr. Robert Clarke from the Georgetown University Medical Center. MCF-7, and CL 10.3 cells were maintained in DMEM (Biofluids, Frederick, Md.) supplemented 10% heat inactivated fetal bovine serum (FBS), 2 mM L-glutamine, and 50 μg/mL each of antibiotics, namely penicillin, streptomycin, and neomycin at 37° C. in a humidified incubator containing 5% CO2.
(§1) The effect of cis-4 and trans-4 or resveratrol on cell growth was determined by WST-1 assay. Briefly, cells were seeded into a 96-well plate at 3,500 cells per well in DMEM containing 10% FBS. After overnight incubation, cells were treated with the compounds (1-100 μM) for 48 h and 72 h at 37° C. Control cells were treated with an equal amount of DMSO. After the indicated incubation time, cell viability was measured by WST-1 assay according to the manufacturer's instructions (Roche). Briefly, 20 μL of WST-1 solution was added in each well and incubated for 2-4 hours. The water soluble tetrazolium salt of WST-1 is converted into orange formazan by dehydrogenase in the mitochondria of living cells. The formazan absorbance, which correlates to the number of living cells, was recorded at wavelengths of 450 nm and 630 nm using a microplate reader (Ultramark, Microplate Imaging System, Bio-Rad). The GI50 was calculated from the graph of the log of compound concentration versus the fraction of the surviving cells.

[2] = tested on: ER+, estrogen-dependent human breast cancer MCF-7 cell line; assay: Cell growth assay (WST-1 assay), MCF-7; type: cell-based; conditions: for MCF-7 cell growth inhibition (in words): MCF-7, WST-1
Protocol: Results are the mean value of triplicate samples. […] Cell viability was finally determined by adding WST-1 reagent and measuring the optical absorbance at […] and 630 nm as described in “Materials and methods”. […] The IC50 for each cell line was calculated using graph pad prism. Data are expressed as mean (SEM) of triplicate samples. […] The IC50 for each cell line was calculated using graph pad prism. Data are expressed as mean (SEM) of triplicate sample. ER-Positive (MCF-7) human breast carcinoma cell line was used in this study. The human breast cell lines MCF-7 (HTB-22) were provided by the tissue culture core facility at Lombardi Comprehensive Cancer Center, Georgetown University Medical Center. […] Robert Clarke from the Georgetown University Medical Center. […] The effect of cis-4 and trans-4 or resveratrol on cell growth was determined by WST-1 assay. Briefly, cells were seeded into a 96-well plate at 3,500 cells per well in DMEM containing 10% FBS. After overnight incubation, cells were treated with the compounds (1-100 μM) for 48 h and 72 h at 37° C. Control cells were treated with an equal amount of DMSO. After the indicated incubation time, cell viability was measured by WST-1 assay according to the manufacturer's instructions (Roche). […] The water soluble tetrazolium salt of WST-1 is converted into orange formazan by dehydrogenase in the mitochondria of living cells. The formazan absorbance, which correlates to the number of living cells, was recorded at wavelengths of 450 nm and 630 nm using a microplate reader (Ultramark, Microplate Imaging System, Bio-Rad). The GI50 was calculated from the graph of the log of compound concentration versus the fraction of the surviving cells.

[3] = tested on: E2-mediated MCF-7 cell growth; assay: DNA content in estrogen mediated MCF-7 cell growth; type: cell-based, human; conditions: E2 10^−9M constant
Protocol: After 5 days incubation, the DNA content of the treated cells was measured using a DNA fluorescence kit (Bio Rad #170-2480). Results are shown as the mean of triplicate samples±SD. The experiment was repeated twice with identical results. […] Cells were then seeded in 24 well plates at 10000 cells per well in 1 ml of estrogen depleted media. […] Cells were incubated at 37° C. for an additional 4 days. Media were removed and cells were frozen at −78° C. overnight and the DNA content in each well was measured according to the manufacturer's protocol (DNA Quantification Kit, Bi0-Rad). Results are represented as mean of triplicate sample and repeated the experiment with identical results.

[4] = Stability compared with resveratrol; type: physicochemical
[5] = tested on: MCF-7 cells; assay: Combination with flavopiridol, WST-1 cell viability; type: cell-based, human; conditions: for Sensitization to flavopiridol (in words): MCF-7; for GI50: Homo sapiens, MCF7
Protocol: as §1, with “A Wst-1 assay was performed to measure the cell viability as mentioned in the methods. GI50 are the average of triplicate samples and the experiment was repeated thrice with identical results. The effect” for “The effect”, “instructions (Roche). […] The water” for “instructions (Roche). Briefly, 20 μL of WST-1 solution was added in each well and incubated for 2-4 hours. The water”

[6] = tested on: cdk4, cdk2, cyclin E, cyclin D1 and pRb in MCF-7 cells; assay: Western blot of G1 cell cycle proteins; type: cell-based, human; conditions: MCF-7, 24 h and 48 h, immunoblot
Protocol: MCF-7 cells were treated with the indicated concentrations of compound 2 for 24 hours and 48 hours and cell lysates were analyzed by immunoblotting. Protein expression of positive regulators such as cyclin D1, Cdk4, cyclinE, Cdk2 and phospho-Rb were detected by their specific antibodies. Human β-actin was analyzed as a control of gel loading. Twenty-micrograms of lysate was used for each experimental condition.
Western blotting was performed as previously published (J Biol Chem 2004, 279, 38903-38911). In brief, cell pellets were collected at the indicated times after treatment with compounds, suspended in 100 μl, of lysis buffer (50 mM Tris-HCl, 150 mM NaCl, 1 mM EGTA, 1 mM EDTA, 20 mM NaF, […], 0.5% NP-40, 1% Triton X-100, 1 mM PMSF, 5 μg/ml aprotinin, 5 μg/ml leupeptin), vortexed twice and incubated in an ice bath for 30 min Lysates were cleared by centrifugation at 12000 rpm for 15 min at 4° C. and protein was estimated by detergent compatible BCA protein assay kit (Pierce). Equivalent amounts of total proteins were resolved by SDS-PAGE (10%) and transferred to PVDF membranes. Membranes were blocked by 5% non-fat powdered milk in TBST overnight. […]

[7] = tested on: MCF-7 cells; conditions: MCF-7, 300 μM, Clin Cancer Res 2002; cited from earlier work
[8] = tested on: MCF-7 cells; assay: Cell cycle analysis by flow cytometry (propidium iodide); type: cell-based, human; conditions: MCF-7, 30 μM, 16, 24, 48 h
Protocol: FIGS. 10A and 10B show the effect of compounds on cell cycle distribution in MCF-7 breast cancer cell lines. A. […] B. Percentage of DNA distribution of trans-4 in G1 phase was presented in a bar graph. Results are represented as a mean of triplicate samples. The experiment was repeated thrice with identical results. The effect of cis-4, trans-4 or resveratrol on cell cycle progression was analyzed by flow cytometry. Cells were seeded in 6-well plates and treated with 30 μM of compound 1 or 2 at different time intervals (16, 24, 48 h). Cells were trypsinized, centrifuged at 2000 rpm and cell pellets were collected. Pellets were washed with 1×PBS, permeabilized with 70% (v/v) ethanol, resuspended in 1 ml of PBS containing 1 mg/ml RNase and […] propidium iodide, incubated in the dark for 30 min at room temperature, and analysed by a FACSort Flow Cytometer (Becton Dickinson, San jose, CA). The cell cycle distribution was evaluated on DNA plots using the Modfit software (Verity softwarehouse, Topsham, Me.).

[9] = MCF-7, 48 h, read-out: Cell Survival (WST-1 assay, GI50) 48 hours
[10] = MCF-7, 72 h, read-out: Cell Survival (WST-1 assay, GI50) 72 hours

Compound: CC(=O)O[C@H]1C(=O)[C@@]2(C)[C@H]([C@H](OC(=O)c3ccccc3)[C@]3(O)C[C@H](OC(=O)[C@H](O)[C@@H](NC(=O)c4ccccc4)c4ccccc4)C(C)=C1C3(C)C)[C@]1(OC(C)=O)CO[C@@H]1C[C@@H]2O [Paclitaxel, reference compound]
- Activity in multidrug resistant cells (in words) [1]: has no effect on CL 10.3 cells
- MDR GI50/non-MDR GI50 [1]: >25,000
- GI50 ([1]; Homo sapiens, MCF7): > 50 µM
- MCF-7 cell growth inhibition (in words) [2]: strongly inhibits MCF-7 cell growth

Compound: COc1ccc(/C=C/c2cc(OC)c(OC)c(OC)c2)cc1B(O)O [trans-4, 2-Methoxy-5-[(E)-2-(3,4,5-trimethoxyphenyl)vinyl]boronic acid]
- GI50 [1]: 49.09 ± 0.001 µM
- Activity in multidrug resistant cells (in words) [1]: equipotent in CL 10.3 and MCF-7 cells
- Activity in multidrug resistant cells (in words) ([1]; listed as Compound 2): can work on multidrug resistant cell lines
- MDR GI50/non-MDR GI50 [1]: 1.57
- P-glycoprotein substrate (in words) [1]: likely not a substrate for P-glycoprotein
- P-glycoprotein substrate (in words) ([1]; listed as YK-5-104): not a substrate for p-glycoprotein
- Effect on E2-mediated MCF-7 cell growth (in words) [3]: does not have any effect on E2-induced cell growth
- GI50 [2, 9]: 36.6 µM
- GI50 [2, 10]: 31.1 ± 0.05 µM
- Activity relative to Resveratrol ([2]; breast cancer): 3 fold
- Stability compared with Resveratrol (in words) [4]: more stable than Resveratrol
- Sensitization to flavopiridol (in words) [5]: modulates the flavopiridol mediated cell viability
- Fold increase in growth inhibition compared with trans-4 ([5]; MCF-7, opposite administration: 100 nM flavopiridol 24 hours then trans-4): 7 fold
- Fold increase of flavopiridol mediated growth inhibition compared with flavopiridol alone ([5]; MCF-7, trans-4 then flavopiridol): 16.6 fold
- Expression level of G1 cell cycle proteins (in words) ([6]; listed as YK-5-104): decreases the pRb levels
- Expression level of G1 cell cycle proteins (in words) ([6]; listed as compound 2): decreases the expression level of cdk4, cdk2, cyclin E, cyclin D1 and pRb

Compound: Oc1ccc(C=Cc2cc(O)cc(O)c2)cc1 [Resveratrol, reference compound]
- Effect on E2-mediated MCF-7 cell growth (in words) [3]: antagonizes E2-mediated MCF-7 cell growth
- Cell cycle arrest by resveratrol in previous studies (in words) [7]: S-phase cell cycle arrest
- Effect on cell cycle distribution (in words) [8]: works at the G2/M1 phase
- Sensitization to flavopiridol (in words) [5]: does not sensitize the MCF-7 cells incubated with flavopiridol

Compound: CN1CC[C@H](c2c(O)cc(O)c3c(=O)cc(-c4ccccc4Cl)oc23)[C@H](O)C1 [flavopiridol, reference compound]
- GI50 ([5]; MCF-7, 10 μM trans-4 for 24 hours then flavopiridol 48 hours, read-out: GI50, combination of trans-4 with flavopiridol): 18 nM
- GI50 ([5]; MCF-7, flavopiridol alone, 48 h, read-out: GI50, flavopiridol only): 300 nM

Compound: [(Z)-2-(3,5-dimethoxyphenyl)vinyl]phenylboronic Acid [cis-4]
- GI50 [2, 9]: > 100 µM
- GI50 [2, 10]: > 100 µM
- MCF-7 cell growth inhibition (in words) [2]: does not show any growth inhibition at 100 μM
